Measurements: patent publication US9695178B2, “6-(2-pyridyl)-7,8-dihydro-5H-pyrido[4,3-D]pyrimidine analogs as hedgehog pathway signaling inhibitors and therapeutic applications thereof” (Suzhou Yunxuan Yiyao Keji Youxian Gongsi, priority 2013, dated 2017)

target: Smo (Homo sapiens, UniProt Q99835); assay: Bodipy-Cyclopamine Binding Assay (confirmation assay), Hek293-SMO cells; settings: not given
Sequence (Q99835 28-787): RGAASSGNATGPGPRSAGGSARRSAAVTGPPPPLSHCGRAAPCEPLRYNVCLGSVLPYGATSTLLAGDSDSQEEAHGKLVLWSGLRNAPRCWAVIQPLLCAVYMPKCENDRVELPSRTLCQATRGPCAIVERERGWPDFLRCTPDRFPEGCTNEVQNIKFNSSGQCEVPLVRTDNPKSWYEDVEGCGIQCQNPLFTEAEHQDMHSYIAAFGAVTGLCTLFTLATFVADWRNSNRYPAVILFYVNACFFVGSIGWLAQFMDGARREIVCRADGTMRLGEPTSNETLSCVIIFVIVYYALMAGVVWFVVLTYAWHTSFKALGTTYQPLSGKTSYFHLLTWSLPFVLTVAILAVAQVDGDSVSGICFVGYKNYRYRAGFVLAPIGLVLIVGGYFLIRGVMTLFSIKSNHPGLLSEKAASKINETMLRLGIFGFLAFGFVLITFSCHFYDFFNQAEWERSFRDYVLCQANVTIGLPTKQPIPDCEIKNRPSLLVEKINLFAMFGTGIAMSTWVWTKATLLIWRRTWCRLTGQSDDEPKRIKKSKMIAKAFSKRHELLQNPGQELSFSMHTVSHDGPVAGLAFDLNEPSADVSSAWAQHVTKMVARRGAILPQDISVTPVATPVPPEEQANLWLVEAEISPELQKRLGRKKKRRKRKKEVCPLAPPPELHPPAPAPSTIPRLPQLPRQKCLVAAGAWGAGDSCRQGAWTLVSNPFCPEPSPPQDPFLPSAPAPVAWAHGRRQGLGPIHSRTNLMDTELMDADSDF

Row | SMILES | IC50 [nM]
1 | Cc1cnc(-c2cc(N3CCn4cc(C(=O)O)nc4C3)ncc2Cl)c(C)c1 [Compound A-2, 7-(5′-chloro-3,5-dimethyl-2,4′-bipyridin-2′-yl)-5,6,7,8-tetrahydro-imidazo-[1,2-a]pyrazine-2-carboxylic acid] | > 10000
2 | Cc1cnc(-c2cc(N3CCn4cc(C(=O)N5CCOCC5)nc4C3)ncc2Cl)c(C)c1 [Compound A-5, (7-(5′-chloro-3,5-dimethyl-2,4′-bipyridin-2′-yl)-5,6,7,8-tetrahydro-imidazo-[1,2-a]pyrazin-2-yl)(morpholino) methanone] | 1150
3 | CNC(=O)c1cn2c(n1)CN(c1cc(-c3ncc(C)cc3C)c(Cl)cn1)CC2 [Compound A-6, 7-(5′-chloro-3,5-dimethyl-2,4′-bipyridin-2′-yl)-N-methyl-5,6,7,8-tetrahydro-imidazo-[1,2-a]pyrazine-2-carboxamide] | 1260
4 | Cc1cnc(-c2cc(N3CCn4cc(C(=O)N5CC(C)NC(C)C5)nc4C3)ncc2Cl)c(C)c1 (stereo not drawn) [Compound A-7, (7-(5′-chloro-3,5-dimethyl-2,4′-bipyridin-2′-yl)-5,6,7,8-tetrahydro-imidazo-[1,2-a]pyrazin-2-yl)(3,5-dimethyl-piperazin-1-yl)methanone] | 656
5 | Cc1cnc(-c2cc(N3CCn4cc(C(=O)N(C)CCO)nc4C3)ncc2Cl)c(C)c1 [Compound A-8, 7-(5′-chloro-3,5-dimethyl-2,4′-bipyridin-2′-yl)-N-(2-hydroxyethyl)-N-methyl-5,6,7,8-tetrahydro-imidazo-[1,2-a]pyrazine-2-carboxamide] | 2010
6 | Cc1cnc(-c2cc(N3CCn4cc(CN5CCOCC5)nc4C3)ncc2Cl)c(C)c1 [Compound A-11, 4-((7-(5′-chloro-3,5-dimethyl-2,4′-bipyridin-2′-yl)-5,6,7,8-tetrahydroimidazo[1,2-a]pyrazin-2-yl)methyl)morpholine] | 676
7 | Cc1cnc(-c2cc(N3CCn4cc(NC(=O)C(F)(F)F)nc4C3)ncc2Cl)c(C)c1 [Compound A-12, N-(7-(5′-chloro-3,5-dimethyl-2,4′-bipyridin-2′-yl)-5,6,7,8-tetrahydro-imidazo-[1,2-a]pyrazin-2-yl)-2,2,2-trifluoro-acetamide] | > 1000
8 | CCC(=O)Nc1cn2c(n1)CN(c1cc(-c3ncc(C)cc3C)c(Cl)cn1)CC2 [Compound A-13, N-(7-(5′-chloro-3,5-dimethyl-2,4′-bipyridin-2′-yl)-5,6,7,8-tetrahydroimidazo[1,2-a]pyrazin-2-yl)propionamide] | > 1000
9 | COCC(=O)Nc1cn2c(n1)CN(c1cc(-c3ncc(C)cc3C)c(Cl)cn1)CC2 [Compound A-14, N-(7-(5′-chloro-3,5-dimethyl-2,4′-bipyridin-2′-yl)-5,6,7,8-tetrahydro-imidazo-[1,2-a]pyrazin-2-yl)-2-methoxy-acetamide] | > 1000
10 | Cc1cnc(-c2cc(N3CCn4cc(C(=O)OC5CCCC5)nc4C3)ncc2Cl)c(C)c1 [Compound A-17, cyclopentyl 7-(5′-chloro-3,5-dimethyl-2,4′-bipyridin-2′-yl)-5,6,7,8-tetrahydro-imidazo-[1,2-a]pyrazine-2-carboxylate] | > 1000
11 | Cc1cnc(-c2cc(N3CCn4cc(C(=O)Oc5ccccc5)nc4C3)ncc2Cl)c(C)c1 [Compound A-18, phenyl 7-(5′-chloro-3,5-dimethyl-2,4′-bipyridin-2′-yl)-5,6,7,8-tetrahydro-imidazo-[1,2-a]pyrazine-2-carboxylate] | > 1000
12 | Cc1cnc(-c2cc(N3CCn4cc(C(=O)Nc5ccc(F)cc5)nc4C3)ncc2Cl)c(C)c1 [Compound A-21, 7-(5′-chloro-3,5-dimethyl-2,4′-bipyridin-2′-yl)-N-(4-fluorophenyl)-5,6,7,8-tetrahydro-imidazo-[1,2-a]pyrazine-2-carboxamide] | > 1000
13 | Cc1cnc(-c2cc(N3CCc4nc(N)sc4C3)ncc2Cl)c(C)c1 [Compound A-22, 5-(5′-chloro-3,5-dimethyl-2,4′-bipyridin-2′-yl)-4,5,6,7-tetrahydro-thiazolo-[5,4-c]pyridin-2-amine] | 768

The next lines start with the values.

Row | IC50 [nM] | SMILES
14 | 639 | Cc1cnc(-c2cc(N3CCn4cc(C(=O)N5CCC(O)CC5)nc4C3)ncc2Cl)c(C)c1 [Compound A-4, (7-(5′-chloro-3,5-dimethyl-2,4′-bipyridin-2′-yl)-5,6,7,8-tetrahydro-imidazo-[1,2-a]pyrazin-2-yl)(4-hydroxy-piperidin-1-yl)methanone]
15 | 589 | Cc1cnc(-c2cc(N3CCn4cc(C(=O)OC(C)C)nc4C3)ncc2Cl)c(C)c1 [Compound A-15, isopropyl 7-(5′-chloro-3,5-dimethyl-2,4′-bipyridin-2′-yl)-5,6,7,8-tetrahydro-imidazo-[1,2-a]pyrazine-2-carboxylate]
16 | 507 | Cc1cnc(-c2cc(N3CCn4cc(C(=O)Nc5ccccc5F)nc4C3)ncc2Cl)c(C)c1 [Compound A-20, 7-(5′-chloro-3,5-dimethyl-2,4′-bipyridin-2′-yl)-N-(2-fluorophenyl)-5,6,7,8-tetrahydro-imidazo-[1,2-a]pyrazine-2-carboxamide]
17 | 423 | COCC(=O)Nc1nc2c(s1)CN(c1cc(-c3ncc(C)cc3C)c(Cl)cn1)CC2 [Compound A-27, N-(5-(5′-chloro-3,5-dimethyl-2,4′-bipyridin-2′-yl)-4,5,6,7-tetrahydro-thiazolo-[5,4-c]pyridin-2-yl)-2-methoxy-acetamide]
18 | 363 | CC(=O)Nc1nc2c(s1)CN(c1cc(-c3ncc(C)cc3C)c(Cl)cn1)CC2 [Compound A-23, N-(5-(5′-chloro-3,5-dimethyl-[2,4′-bipyridin]-2′-yl)-4,5,6,7-tetrahydrothiazolo[5,4-c]pyridin-2-yl)acetamide]
19 | 321 | CCOC(=O)c1cn2c(n1)CN(c1cc(-c3ncc(C)cc3C)c(Cl)cn1)CC2 [Compound A-1, ethyl 7-(5′-chloro-3,5-dimethyl-2,4′-bipyridin-2′-yl)-5,6,7,8-tetrahydro-imidazo-[1,2-a]pyrazine-2-carboxylate]
20 | 244 | Cc1cnc(-c2cc(N3CCn4cc(C(=O)N5CCCC5)nc4C3)ncc2Cl)c(C)c1 [Compound A-3, (7-(5′-chloro-3,5-dimethyl-2,4′-bipyridin-2′-yl)-5,6,7,8-tetrahydroimidazo[1,2-a]pyrazin-2-yl)(pyrrolidin-1-yl)methanone]
21 | 169 | Cc1cnc(-c2cc(N3CCc4nc(N5CCOCC5)sc4C3)ncc2Cl)c(C)c1 [Compound A-29, 4-(5-(5′-chloro-3,5-dimethyl-[2,4′-bipyridin]-2′-yl)-4,5,6,7-tetrahydrothiazolo[5,4-c]pyridin-2-yl)morpholine]
22 | 158 | CCOc1nc2c(s1)CN(c1cc(-c3ncc(C)cc3C)c(Cl)cn1)CC2 [Compound A46, 5-(5′-chloro-3,5-dimethyl-2,4′-bipyridin-2′-yl)-2-ethoxy-4,5,6,7-tetrahydro-thiazolo-[5,4-c]pyridine]
23 | 127 | Cc1cnc(-c2cc(N3CCc4nc(NC(=O)C(C)(C)C)sc4C3)ncc2Cl)c(C)c1 [Compound A-28, N-(5-(5′-chloro-3,5-dimethyl-2,4′-bipyridin-2′-yl)-4,5,6,7-tetrahydro-thiazolo-[5,4-c]pyridin-2-yl)pivalamide]
24 | 101 | CCC(=O)Nc1nc2c(s1)CN(c1cc(-c3ncc(C)cc3C)c(Cl)cn1)CC2 [Compound A-25, N-(5-(5′-chloro-3,5-dimethyl-2,4′-bipyridin-2′-yl)-4,5,6,7-tetrahydro-thiazolo-[5,4-c]pyridin-2-yl)propion-amide]
25 | 71 | Cc1cnc(-c2cc(N3CCc4nc(NC(=O)C5CC5)sc4C3)ncc2Cl)c(C)c1 [Compound A-26, N-(5-(5′-chloro-3,5-dimethyl-2,4′-bipyridin-2′-yl)-4,5,6,7-tetrahydro-thiazolo-[5,4-c]pyridin-2-yl)cyclo-propane carboxamide]
26 | 69.7 | Cc1cnc(-c2cc(N3CCc4nc(N5CC(C)NC(C)C5)sc4C3)ncc2Cl)c(C)c1 (stereo not drawn) [Compound A-30, 5-(5′-chloro-3,5-dimethyl-2,4′-bipyridin-2′-yl)-2-(3,5-dimethyl-piperazin-1-yl)-4,5,6,7-tetrahydro-thiazolo-[5,4-c]pyridine]
27 | 58.3 | Cc1cnc(-c2cc(N3CCc4nc(NC(=O)C(C)C)sc4C3)ncc2Cl)c(C)c1 [Compound A-24, N-(5-(5′-chloro-3,5-dimethyl-2,4′-bipyridin-2′-yl)-4,5,6,7-tetrahydro-thiazolo-[5,4-c]pyridin-2-yl)isobutyr-amide]
28 | 54.8 | Cc1cnc(-c2cc(N3CCc4nc(NCC5CC5)sc4C3)ncc2Cl)c(C)c1 [Compound A-31, 5-(5′-chloro-3,5-dimethyl-2,4′-bipyridin-2′-yl)-N-(cyclopro-pylmeth-yl)-4,5,6,7-tetrahydro-thiazolo-[5,4-c]pyridin-2-amine]
29 | 24.8 | Cc1cnc(-c2cc(N3CCc4nc(NC5CC5)ncc4C3=O)ncc2Cl)c(C)c1 [Compound A99, 6-(5′-chloro-3,5-dimethyl-2,4′-bipyridin-2′-yl)-2-(cyclopropyl-amino)-7,8-dihydro-pyrido[4,3-d]pyrimidin-5(6H)-one]

same assay, conditions: Smo IC50 (nM), confirmation assay; competition with 100 nM bodipy-cyclopamine, Hek293-SMO cells

Row | IC50 [nM] | SMILES
30 | 442 | Cc1cnc(-c2cc(N3CCn4cc(C(=O)OCC5CC5)nc4C3)ncc2Cl)c(C)c1 [Compound A16, cyclopro-pylmeth-yl 7-(5′-chloro-3,5-dimethyl-2,4′-bipyridin-2′-yl)-5,6,7,8-tetrahydro-imidazo-[1,2-a]pyrazine-2-carboxylate]
31 | > 1000 | CCNC(=O)c1cn2c(n1)CN(c1cc(-c3ncc(C)cc3C)c(Cl)cn1)CC2 [Compound A-9, 7-(5′-chloro-3,5-dimethyl-2,4′-bipyridin-2′-yl)-N-ethyl-5,6,7,8-tetrahydro-imidazo-[1,2-a]pyrazine-2-carboxamide]
32 | > 1000 | Cc1cnc(-c2cc(N3CCn4cc(CO)nc4C3)ncc2Cl)c(C)c1 [Compound A-10, (7-(5′-chloro-3,5-dimethyl-2,4′-bipyridin-2′-yl)-5,6,7,8-tetrahydro-imidazo-[1,2-a]pyrazin-2-yl)methanol]
33 | 311 | Cc1cnc(-c2cc(N3CCn4cc(C(=O)Nc5ccccc5)nc4C3)ncc2Cl)c(C)c1 [Compound A-19, 7-(5′-chloro-3,5-dimethyl-2,4′-bipyridin-2′-yl)-N-phenyl-5,6,7,8-tetrahydro-imidazo-[1,2-a]pyrazine-2-carboxamide]
